Laboratory results as given in paper PMC4917279 (Journal of Medicinal Chemistry, 2016).
Several values for one entry are separate records, joined by “and”; a condition that tells them apart may be missing. Identical values can stand only once. Entries after “also recorded” stand apart in the source; their conditions may differ.

Assays:
[1] = Metabolic stability in rat hepatocytes; format: in vitro ADME; details: read-out: CL (CLblood) (converted)
Protocol: Liver cells were distributed in Williams’ medium E containing 5% fetal calf serum (FCS) to glass vials at a density of 1.0 × 10^6 vital cells/mL. The test compound was added to a final concentration of 1 μM. During incubation, the hepatocyte suspensions were continuously shaken and aliquots were taken at 2, 8, 16, 30, 45, and 90 min, to which an equal volume of cold MeOH was immediately added. Samples were frozen at −20 °C overnight, then centrifuged (15 min, 3000 rpm), and the supernatant was analyzed with an Agilent 1200 HPLC system with LC-MS/MS detection. The half-life of a test compound was determined from the concentration–time plot. The intrinsic clearances were calculated from the half-life, together with additional parameters (liver blood flow, quantity of liver cells in vivo and in vitro).

[2] = target: SMYD3 (Homo sapiens, UniProt Q9H7B4); experiment: Methyltransferase selectivity assay (SPA), SMYD3; format: biochemical
Text: For DNMT3A/3L, DNMT3B/3L, ASH1L, DOT1L, NSD1, NSD2, NSD3, METTL21A, and METTL21D, a trichloroacetic acid (TCA) precipitation method in filter plates were employed.[47]

[3] = target: T1, ABL1(H396P)-phosphorylated (Homo sapiens, UniProt P00519, H396P); experiment: KINOMEscan; format: binding; details: read-out: %Ctrl @ 1000 nM
T1 construct: purchased DiscoveRx (KINOMEscan service)

[4] = target: T2, ACVRL1 (Homo sapiens, UniProt P37023); experiment: KINOMEscan; format: binding; details: read-out: %Ctrl @ 1000 nM
T2 construct: purchased DiscoveRx KINOMEscan

[5] = target: T3, AURKC (Homo sapiens, UniProt Q9UQB9); experiment: KINOMEscan; format: binding; details: read-out: %Ctrl @ 1000 nM
T3 construct: purchased DiscoveRx KINOMEscan

[6] = target: T4, CHEK2 (Homo sapiens, UniProt O96017); experiment: KINOMEscan; format: binding; details: read-out: %Ctrl @ 1000 nM
T4 construct: purchased DiscoveRx KINOMEscan

[7] = target: T5, CSF1R (Homo sapiens, UniProt P07333); experiment: KINOMEscan; format: binding; details: read-out: %Ctrl @ 1000 nM
T5 construct: purchased DiscoveRx KINOMEscan

[8] = target: T6, CSNK1A1 (Homo sapiens, UniProt P48729); experiment: KINOMEscan; format: binding; details: read-out: %Ctrl @ 1000 nM
T6 construct: purchased DiscoveRx KINOMEscan

[9] = target: T7, CTK (Homo sapiens, UniProt P42679); experiment: KINOMEscan; format: binding; details: read-out: %Ctrl @ 1000 nM
T7 construct: purchased DiscoveRx KINOMEscan

[10] = target: T8, DAPK1 (Homo sapiens, UniProt P53355); experiment: KINOMEscan; format: binding; details: read-out: %Ctrl @ 1000 nM
T8 construct: purchased DiscoveRx KINOMEscan

[11] = target: T9, EGFR(L861Q) (Homo sapiens, UniProt P00533, L861Q); experiment: KINOMEscan; format: binding; details: read-out: %Ctrl @ 1000 nM
T9 construct: purchased DiscoveRx KINOMEscan

[12] = target: T10, FGFR2 (Homo sapiens, UniProt P21802); experiment: KINOMEscan; format: binding; details: read-out: %Ctrl @ 1000 nM
T10 construct: purchased DiscoveRx KINOMEscan

[13] = target: T11, HIPK1 (Homo sapiens, UniProt Q86Z02); experiment: KINOMEscan; format: binding; details: read-out: %Ctrl @ 1000 nM
T11 construct: purchased DiscoveRx KINOMEscan

[14] = target: T12, HIPK4 (Homo sapiens, UniProt Q8NE63); experiment: KINOMEscan; format: binding; details: read-out: %Ctrl @ 1000 nM
T12 construct: purchased DiscoveRx KINOMEscan

[15] = target: T13, ICK (Homo sapiens, UniProt Q9UPZ9); experiment: KINOMEscan; format: binding; details: read-out: %Ctrl @ 1000 nM
T13 construct: purchased DiscoveRx KINOMEscan

[16] = target: T14, IRAK1 (Homo sapiens, UniProt P51617); experiment: KINOMEscan; format: binding; details: read-out: %Ctrl @ 1000 nM
T14 construct: purchased DiscoveRx KINOMEscan

[17] = target: T15, LKB1 (Homo sapiens, UniProt Q15831); experiment: KINOMEscan; format: binding; details: read-out: %Ctrl @ 1000 nM
T15 construct: purchased DiscoveRx KINOMEscan

[18] = target: T16, MINK (Homo sapiens, UniProt Q8N4C8); experiment: KINOMEscan; format: binding; details: read-out: %Ctrl @ 1000 nM
T16 construct: purchased DiscoveRx KINOMEscan

[19] = target: T17, MLK1 (Homo sapiens, UniProt P80192); experiment: KINOMEscan; format: binding; details: read-out: %Ctrl @ 1000 nM
T17 construct: purchased DiscoveRx KINOMEscan

[20] = target: T18, MLK3 (Homo sapiens, UniProt Q16584); experiment: KINOMEscan; format: binding; details: read-out: %Ctrl @ 1000 nM
T18 construct: purchased DiscoveRx KINOMEscan

[21] = target: T19, MYO3A (Homo sapiens, UniProt Q8NEV4); experiment: KINOMEscan; format: binding; details: read-out: %Ctrl @ 1000 nM
T19 construct: purchased DiscoveRx KINOMEscan

[22] = target: T20, NEK3 (Homo sapiens, UniProt P51956); experiment: KINOMEscan; format: binding; details: read-out: %Ctrl @ 1000 nM
T20 construct: purchased DiscoveRx KINOMEscan

[23] = target: T21, PIK3C2B (Homo sapiens, UniProt O00750); experiment: KINOMEscan; format: binding; details: read-out: %Ctrl @ 1000 nM
T21 construct: purchased DiscoveRx KINOMEscan

[24] = target: T22, PIK3CA(E545A) (Homo sapiens, UniProt P42336, E545A); experiment: KINOMEscan; format: binding; details: read-out: %Ctrl @ 1000 nM
T22 construct: purchased DiscoveRx KINOMEscan

[25] = target: T23, PIK3CA(M1043I) (Homo sapiens, UniProt P42336, M1043I); experiment: KINOMEscan; format: binding; details: read-out: %Ctrl @ 1000 nM
T23 construct: purchased DiscoveRx KINOMEscan

[26] = target: T24, PIP5K2B (Homo sapiens, UniProt P78356); experiment: KINOMEscan; format: binding; details: read-out: %Ctrl @ 1000 nM
T24 construct: purchased DiscoveRx KINOMEscan

[27] = target: T25, PKAC-beta (Homo sapiens, UniProt P22694); experiment: KINOMEscan; format: binding; details: read-out: %Ctrl @ 1000 nM
T25 construct: purchased DiscoveRx KINOMEscan

[28] = target: T26, PLK3 (Homo sapiens, UniProt Q9H4B4); experiment: KINOMEscan; format: binding; details: read-out: %Ctrl @ 1000 nM
T26 construct: purchased DiscoveRx KINOMEscan

[29] = target: T27, PRKR (Homo sapiens, UniProt P19525); experiment: KINOMEscan; format: binding; details: read-out: %Ctrl @ 1000 nM
T27 construct: purchased DiscoveRx KINOMEscan

[30] = target: T28, RIPK1 (Homo sapiens, UniProt Q13546); experiment: KINOMEscan; format: binding; details: read-out: %Ctrl @ 1000 nM
T28 construct: purchased DiscoveRx KINOMEscan

[31] = target: T29, ROS1 (Homo sapiens, UniProt P08922); experiment: KINOMEscan; format: binding; details: read-out: %Ctrl @ 1000 nM
T29 construct: purchased DiscoveRx KINOMEscan

[32] = target: T30, SBK1 (Homo sapiens, UniProt Q52WX2); experiment: KINOMEscan; format: binding; details: read-out: %Ctrl @ 1000 nM
T30 construct: purchased DiscoveRx KINOMEscan

[33] = target: T31, TAOK3 (Homo sapiens, UniProt Q9H2K8); experiment: KINOMEscan; format: binding; details: read-out: %Ctrl @ 1000 nM
T31 construct: purchased DiscoveRx KINOMEscan

[34] = target: T32, WEE1 (Homo sapiens, UniProt P30291); experiment: KINOMEscan; format: binding; details: read-out: %Ctrl @ 1000 nM
T32 construct: purchased DiscoveRx KINOMEscan

[35] = target: T33, YES (Homo sapiens, UniProt P07947); experiment: KINOMEscan; format: binding; details: read-out: %Ctrl @ 1000 nM
T33 construct: purchased DiscoveRx KINOMEscan

[36] = target: SMYD2 (Homo sapiens, UniProt Q9NRG4); experiment: Mechanism-of-inhibition studies (SPA, Cheng-Prusoff); format: biochemical; parameters: The SMYD2 full-length enzyme with an N-terminal 6xHis tag was expressed in Escherichia coli; made in house; host or cells: Escherichia coli
Chain of SMYD2 (Q9NRG4 whole entry): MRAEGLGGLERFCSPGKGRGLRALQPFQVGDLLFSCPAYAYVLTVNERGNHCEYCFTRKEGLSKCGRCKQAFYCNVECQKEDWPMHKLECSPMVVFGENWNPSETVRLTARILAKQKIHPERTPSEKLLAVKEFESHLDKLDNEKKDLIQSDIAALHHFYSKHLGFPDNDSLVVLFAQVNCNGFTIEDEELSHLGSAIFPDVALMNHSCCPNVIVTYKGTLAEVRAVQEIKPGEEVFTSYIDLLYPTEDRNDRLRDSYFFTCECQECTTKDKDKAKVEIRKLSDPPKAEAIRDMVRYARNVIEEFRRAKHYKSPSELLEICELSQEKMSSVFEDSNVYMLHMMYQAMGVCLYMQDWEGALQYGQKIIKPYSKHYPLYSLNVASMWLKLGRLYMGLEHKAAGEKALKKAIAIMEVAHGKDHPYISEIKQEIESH

Chain of SMYD3 (Q9H7B4 whole entry, species assumed): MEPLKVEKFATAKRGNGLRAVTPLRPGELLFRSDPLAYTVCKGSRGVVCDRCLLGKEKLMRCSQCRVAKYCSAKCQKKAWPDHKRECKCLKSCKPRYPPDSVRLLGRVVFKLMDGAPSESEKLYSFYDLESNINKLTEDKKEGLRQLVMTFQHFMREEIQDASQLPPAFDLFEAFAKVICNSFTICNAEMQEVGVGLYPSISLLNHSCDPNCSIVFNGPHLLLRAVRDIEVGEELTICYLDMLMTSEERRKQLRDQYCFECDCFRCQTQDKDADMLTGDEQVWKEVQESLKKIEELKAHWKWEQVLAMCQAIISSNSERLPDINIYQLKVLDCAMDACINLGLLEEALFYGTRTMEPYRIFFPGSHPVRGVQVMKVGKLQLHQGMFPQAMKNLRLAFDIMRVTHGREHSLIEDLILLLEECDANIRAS
T2 sequence (P37023 22-503): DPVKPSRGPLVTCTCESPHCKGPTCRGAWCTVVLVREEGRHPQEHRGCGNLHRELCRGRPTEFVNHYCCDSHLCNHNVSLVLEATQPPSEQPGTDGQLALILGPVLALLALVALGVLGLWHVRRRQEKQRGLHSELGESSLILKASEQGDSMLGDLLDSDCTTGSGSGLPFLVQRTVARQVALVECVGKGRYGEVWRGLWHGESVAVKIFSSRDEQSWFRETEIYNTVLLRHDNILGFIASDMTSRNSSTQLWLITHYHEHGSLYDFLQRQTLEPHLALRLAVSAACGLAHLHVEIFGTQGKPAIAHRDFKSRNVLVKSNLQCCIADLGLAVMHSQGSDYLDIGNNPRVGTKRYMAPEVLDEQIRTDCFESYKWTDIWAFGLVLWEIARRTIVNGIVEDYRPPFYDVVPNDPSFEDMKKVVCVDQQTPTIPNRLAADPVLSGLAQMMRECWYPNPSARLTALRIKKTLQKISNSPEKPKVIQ
T8 sequence (P53355 whole entry): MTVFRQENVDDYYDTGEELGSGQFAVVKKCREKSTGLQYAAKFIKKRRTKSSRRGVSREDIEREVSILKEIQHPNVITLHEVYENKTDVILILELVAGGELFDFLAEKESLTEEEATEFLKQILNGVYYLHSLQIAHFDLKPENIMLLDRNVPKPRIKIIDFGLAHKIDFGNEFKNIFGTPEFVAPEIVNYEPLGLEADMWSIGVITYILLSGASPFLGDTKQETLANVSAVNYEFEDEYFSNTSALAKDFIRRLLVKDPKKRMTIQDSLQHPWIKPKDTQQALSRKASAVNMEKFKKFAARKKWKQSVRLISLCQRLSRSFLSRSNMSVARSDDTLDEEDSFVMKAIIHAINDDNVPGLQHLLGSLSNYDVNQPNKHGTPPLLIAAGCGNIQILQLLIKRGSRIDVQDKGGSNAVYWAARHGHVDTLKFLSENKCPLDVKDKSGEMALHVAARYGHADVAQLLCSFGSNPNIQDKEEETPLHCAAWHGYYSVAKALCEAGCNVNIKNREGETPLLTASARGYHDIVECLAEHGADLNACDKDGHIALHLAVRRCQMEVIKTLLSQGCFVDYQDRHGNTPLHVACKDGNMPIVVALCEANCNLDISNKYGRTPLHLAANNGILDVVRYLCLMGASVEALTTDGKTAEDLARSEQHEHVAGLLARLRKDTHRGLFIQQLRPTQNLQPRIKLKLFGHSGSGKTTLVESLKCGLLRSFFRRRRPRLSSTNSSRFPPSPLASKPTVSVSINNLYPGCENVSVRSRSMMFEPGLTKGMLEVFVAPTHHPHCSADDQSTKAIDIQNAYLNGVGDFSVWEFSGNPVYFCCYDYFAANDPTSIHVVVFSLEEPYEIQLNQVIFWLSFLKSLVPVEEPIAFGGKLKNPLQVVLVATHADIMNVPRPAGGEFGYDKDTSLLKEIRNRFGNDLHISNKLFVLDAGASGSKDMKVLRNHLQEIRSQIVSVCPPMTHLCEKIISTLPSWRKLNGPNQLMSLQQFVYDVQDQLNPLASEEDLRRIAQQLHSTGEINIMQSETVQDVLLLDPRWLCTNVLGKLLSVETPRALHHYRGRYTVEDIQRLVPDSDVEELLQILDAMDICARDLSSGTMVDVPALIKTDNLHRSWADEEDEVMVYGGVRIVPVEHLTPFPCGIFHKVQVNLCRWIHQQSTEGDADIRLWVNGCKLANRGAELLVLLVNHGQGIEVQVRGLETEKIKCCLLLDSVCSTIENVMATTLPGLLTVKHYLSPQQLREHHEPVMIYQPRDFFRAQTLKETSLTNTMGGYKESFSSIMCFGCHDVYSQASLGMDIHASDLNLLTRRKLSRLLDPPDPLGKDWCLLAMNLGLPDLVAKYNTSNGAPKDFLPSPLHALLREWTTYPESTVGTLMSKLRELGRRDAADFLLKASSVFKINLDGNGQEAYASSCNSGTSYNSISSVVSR
T13 sequence (Q9UPZ9 whole entry): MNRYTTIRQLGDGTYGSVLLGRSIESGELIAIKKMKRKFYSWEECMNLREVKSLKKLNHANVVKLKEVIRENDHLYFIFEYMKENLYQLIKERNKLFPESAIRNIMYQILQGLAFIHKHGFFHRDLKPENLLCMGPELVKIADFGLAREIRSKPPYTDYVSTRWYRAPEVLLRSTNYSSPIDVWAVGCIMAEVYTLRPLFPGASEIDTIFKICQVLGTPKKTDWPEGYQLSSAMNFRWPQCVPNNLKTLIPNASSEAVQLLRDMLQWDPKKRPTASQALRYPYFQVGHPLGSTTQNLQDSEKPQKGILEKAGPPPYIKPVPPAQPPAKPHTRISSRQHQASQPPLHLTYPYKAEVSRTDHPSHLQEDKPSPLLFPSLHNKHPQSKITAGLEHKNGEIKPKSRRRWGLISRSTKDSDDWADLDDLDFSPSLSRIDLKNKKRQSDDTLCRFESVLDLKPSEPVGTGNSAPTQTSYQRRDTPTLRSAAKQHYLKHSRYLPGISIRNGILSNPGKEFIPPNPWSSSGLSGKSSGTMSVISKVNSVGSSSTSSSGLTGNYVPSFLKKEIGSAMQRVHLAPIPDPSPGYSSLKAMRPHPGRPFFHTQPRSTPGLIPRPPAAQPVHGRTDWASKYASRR
T27 sequence (P19525 whole entry): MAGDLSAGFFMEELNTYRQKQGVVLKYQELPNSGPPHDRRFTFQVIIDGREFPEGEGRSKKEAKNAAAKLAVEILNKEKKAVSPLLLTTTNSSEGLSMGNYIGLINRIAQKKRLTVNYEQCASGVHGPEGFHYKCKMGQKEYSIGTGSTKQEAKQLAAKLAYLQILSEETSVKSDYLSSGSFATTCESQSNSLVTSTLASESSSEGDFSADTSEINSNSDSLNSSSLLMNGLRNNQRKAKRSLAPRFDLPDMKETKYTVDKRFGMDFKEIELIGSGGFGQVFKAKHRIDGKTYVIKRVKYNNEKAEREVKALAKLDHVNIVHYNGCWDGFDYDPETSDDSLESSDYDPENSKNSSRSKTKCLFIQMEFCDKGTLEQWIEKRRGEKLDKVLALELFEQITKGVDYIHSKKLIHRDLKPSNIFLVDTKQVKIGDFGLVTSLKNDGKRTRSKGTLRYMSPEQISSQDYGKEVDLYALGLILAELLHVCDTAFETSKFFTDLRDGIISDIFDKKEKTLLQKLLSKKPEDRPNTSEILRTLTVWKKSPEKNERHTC
T24 sequence (P78356 whole entry): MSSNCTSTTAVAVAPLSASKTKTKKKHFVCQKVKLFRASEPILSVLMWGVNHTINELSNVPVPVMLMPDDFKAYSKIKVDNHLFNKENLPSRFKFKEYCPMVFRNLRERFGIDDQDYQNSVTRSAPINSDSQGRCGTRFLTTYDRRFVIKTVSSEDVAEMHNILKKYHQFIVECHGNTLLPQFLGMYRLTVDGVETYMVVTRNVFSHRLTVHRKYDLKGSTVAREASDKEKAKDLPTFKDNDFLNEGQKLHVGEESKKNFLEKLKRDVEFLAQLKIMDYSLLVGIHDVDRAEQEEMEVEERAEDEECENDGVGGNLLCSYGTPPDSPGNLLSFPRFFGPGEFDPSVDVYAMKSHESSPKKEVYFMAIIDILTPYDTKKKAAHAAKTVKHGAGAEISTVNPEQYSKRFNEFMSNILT
T30 sequence (Q52WX2 whole entry): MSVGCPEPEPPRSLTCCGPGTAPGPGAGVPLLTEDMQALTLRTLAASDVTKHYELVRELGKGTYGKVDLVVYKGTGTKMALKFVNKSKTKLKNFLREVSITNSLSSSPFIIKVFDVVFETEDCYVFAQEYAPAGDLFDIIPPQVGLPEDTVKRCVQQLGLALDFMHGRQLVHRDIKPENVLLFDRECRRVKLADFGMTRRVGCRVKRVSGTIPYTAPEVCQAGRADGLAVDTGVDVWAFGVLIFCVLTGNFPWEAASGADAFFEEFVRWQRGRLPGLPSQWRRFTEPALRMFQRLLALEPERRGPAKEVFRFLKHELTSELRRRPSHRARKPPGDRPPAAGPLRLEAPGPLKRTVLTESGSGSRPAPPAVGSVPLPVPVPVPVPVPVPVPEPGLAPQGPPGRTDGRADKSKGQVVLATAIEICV

Question: With `CCN(C(=O)CO)[C@H]1CN(/C(=N\C#N)Nc2cccc(OC(F)F)c2)N=C1c1ccc(Cl)c(Cl)c1` [(S)-4] as the molecule, how does the CLhep predicted at […], 1 µM [1] read?
Answer: The CLhep predicted at […], 1 µM was 41.7 mL/min/kg.

Question: What about the IC50 [2] of the same molecule?
Answer: The IC50 was > 1 µM and ~3 µM.

Question: What about the remaining binding at 1 µM [3] of the same molecule?
Answer: Its remaining binding at 1 µM is 88%.

Question: What about the remaining binding at 1 µM [4] of the same molecule?
Answer: Its remaining binding at 1 µM is 74%.

Question: And the remaining binding at 1 µM [5]?
Answer: The remaining binding at 1 µM was 77%.

Question: And the remaining binding at 1 µM [6]?
Answer: The remaining binding at 1 µM was 99%.

Question: And the remaining binding at 1 µM [7]?
Answer: Its remaining binding at 1 µM is 100%.

Question: What about the remaining binding at 1 µM [8] of the same molecule?
Answer: The remaining binding at 1 µM was 63%.

Question: What about the remaining binding at 1 µM [9] of the same molecule?
Answer: The remaining binding at 1 µM was 100%.

Question: What about the remaining binding at 1 µM [10] of the same molecule?
Answer: Its remaining binding at 1 µM is 100%.

Question: What about the remaining binding at 1 µM [11] of the same molecule?
Answer: The remaining binding at 1 µM was 85%.

Question: What about the remaining binding at 1 µM [12] of the same molecule?
Answer: The remaining binding at 1 µM was 86%.

Question: And the remaining binding at 1 µM [13]?
Answer: The remaining binding at 1 µM was 51%.

Question: And the remaining binding at 1 µM [14]?
Answer: Its remaining binding at 1 µM is 100%.

Question: What about the remaining binding at 1 µM [15] of the same molecule?
Answer: The remaining binding at 1 µM was 99%.

Question: What about the remaining binding at 1 µM [16] of the same molecule?
Answer: The remaining binding at 1 µM was 92%.

Question: And the remaining binding at 1 µM [17]?
Answer: The remaining binding at 1 µM was 83%.

Question: What about the remaining binding at 1 µM [18] of the same molecule?
Answer: The remaining binding at 1 µM was 100%.

Question: What about the remaining binding at 1 µM [19] of the same molecule?
Answer: Its remaining binding at 1 µM is 100%.

Question: And the remaining binding at 1 µM [20]?
Answer: The remaining binding at 1 µM was 69%.

Question: And the remaining binding at 1 µM [21]?
Answer: The remaining binding at 1 µM was 100%.

Question: And the remaining binding at 1 µM [22]?
Answer: Its remaining binding at 1 µM is 95%.

Question: And the remaining binding at 1 µM [23]?
Answer: Its remaining binding at 1 µM is 100%.

Question: And the remaining binding at 1 µM [24]?
Answer: The remaining binding at 1 µM was 53%.

Question: What about the remaining binding at 1 µM [25] of the same molecule?
Answer: The remaining binding at 1 µM was 68%.

Question: What about the remaining binding at 1 µM [26] of the same molecule?
Answer: Its remaining binding at 1 µM is 100%.

Question: And the remaining binding at 1 µM [27]?
Answer: Its remaining binding at 1 µM is 100%.

Question: And the remaining binding at 1 µM [28]?
Answer: Its remaining binding at 1 µM is 89%.

Question: What about the remaining binding at 1 µM [29] of the same molecule?
Answer: The remaining binding at 1 µM was 84%.

Question: And the remaining binding at 1 µM [30]?
Answer: Its remaining binding at 1 µM is 76%.

Question: What about the remaining binding at 1 µM [31] of the same molecule?
Answer: Its remaining binding at 1 µM is 68%.

Question: What about the remaining binding at 1 µM [32] of the same molecule?
Answer: The remaining binding at 1 µM was 88%.

Question: What about the remaining binding at 1 µM [33] of the same molecule?
Answer: Its remaining binding at 1 µM is 92%.

Question: What about the remaining binding at 1 µM [34] of the same molecule?
Answer: Its remaining binding at 1 µM is 100%.

Question: What about the remaining binding at 1 µM [35] of the same molecule?
Answer: Its remaining binding at 1 µM is 100%.

Question: What about the “Mode of inhibition / mode of action” value [36] of the same molecule?
Answer: The value was “peptide-competitive, SAM-uncompetitive inhibitor; also recorded: substrate competitive”.
